Experimental data as given in patent US20030186950A1, “Use of n-heterocyclic substituted salicylates for inhibition of cellular uptake of cystine” (priority 2000, published 2003).
“Also recorded” adds a separate entry of the source.

Tests used:
[1] = test system: Nb2-SFJCD1 rat lymphoma cells; test: Culture growth inhibition assay in Nb2-SFJCD1 lymphoma cultures; type: cell-based; conditions: for Growth-inhibitory activity: 0.1-0.3 mM (FIG. 2); for IC50: 45 h, Fischer's medium with 10.0% horse gelding serum, read-out: IC50 (mM) Average ± S.D., growth inhibition
Method: (§1) Nb2 lymphoma is of a pre-T cell origin. The parental line (Nb2 U17) is non-metastatic as subcutaneous implants whereas subline Nb2-SFJCD1 is highly metastatic. Nb2-SFJCD1 cultures (doubling time=12-13 hr) were maintained in Fischer's medium (Sigma-Aldrich), supplemented with 10.0% horse gelding serum (lactogen-deficient; one batch, ICN Biomedicals, Inc., Auroro, Ohio), penicillin (50 U/ml) and streptomycin (50 μg/ml). In this medium the cells grow as clumps which can be readily dispersed. Nb2 lymphoma cell lines are used by a number of laboratories; the Nb2-11 subline, is available from the European Collection of Animal Cell Cultures (ECACC) in Salisbury, U.K. The Nb2-U17 and Nb2-SJFCD1 cell lines are available from Dr. Peter W. Gout, B.C. Cancer Research Centre, Vancouver, B.C., Canada.
Nb2-SFJCD1 cells from log phase cultures were centrifuged (3.5 min at 350×g) and gently resuspended in fresh Fisher's medium containing 10% horse gelding serum. Aliquots (1.80 ml) were distributed in 12-well tissue culture plates (Linbro, Flow Laboratories, Mississauga, ON, Canada) and preincubated for 3-5 hours at 37° C. in a water-saturated 5% CO2/air atmosphere. Solutions of the drugs (200 μl portions) were then added to the cultures for a 45 hour incubation (Cin=1.0×10^5 cells/ml). Cell populations were determined using an electronic counter (Coulter Electronics, Hialeah, Fla.).

[2] = as reported in the literature for patients/controls undergoing treatment; cited from earlier work
[3] = test system: MCF-7 human breast carcinoma cell line; test: Cell proliferation of MCF-7 breast carcinoma cells; type: cell-based
Text: (§2) The effect of sulfasalazine on cell proliferation was subsequently assessed.

Nb2-U17 tumor transplant = test: Tumor growth inhibition in Nb rats with subcutaneous Nb2-U17 lymphoma transplants; type: in vivo, rat; conditions: b.i.d.; for Average tumor size after 7 days: controls 12.6 gr
Method: A colony of Nb rats is maintained in the British Columbia Cancer Research Centre Vancouver, B.C., Canada. Approximately equal portions of minced Nb2-U17 tumor tissue, developed subcutaneously in a rat following injection of cultured Nb2-U17 cells, were injected by trocar subcutaneously in the nape of the neck of groups of male Nb rats (one injection per rat), that had been lightly anesthetized with isoflurane (Abbott Laboratories Ltd., Montreal, Canada). […] 2% CMC or saline were used for controls. Drug preparation and administration were carried out under subdued light conditions. Food and water were provided ad libitum. Tumor size, body weight and general health of the rats were monitored twice a day. Tumor size was measured using calipers and expressed in grams using the formula: π/6×length×width×height in cm. […] On necropsy the animals were examined for evidence of metastatic spread with particular attention to tissues such as kidneys, liver and spleen, the target tissues of metastatic Nb2 lymphoma cells. Tissue sections were taken for histologic analysis. Non-tumor-bearing animals were used to establish maximally tolerated dosages.
Groups of male rats (350-400 gr) were used, each carrying a single, well-developed, rapidly growing, non-metastatic, subcutaneous Nb2-U17 tumor transplant in the nape of the neck. Non-metastatic Nb2-U17 tumors were employed to avoid dissemination of cells from the tumor which would interfere with measurements of drug-induced changes in tumor mass. […] The animals were treated for a 7-day period, with drug administration taking place at approximately 12 hour intervals in an attempt to maintain elevated levels of the drug in the circulation.

[4] = test system: MDA-MB-231 human breast carcinoma cell line; test: Cell proliferation of MDA-MB-231 breast carcinoma cells; type: cell-based; conditions: 2-ME 60 μM
Text: as §2

[5] = test system: DoHH2 cells (human B-cell non-Hodgkin's lymphoma); test: Culture growth inhibition assay in DoHH2 cultures; type: cell-based; conditions: for Growth-inhibitory activity: medium with 5% FBS + 5% horse serum (FIG. 4)
Method: as §1, with “Canada. DoHH2 cell suspension cultures (doubling time ca. 20 hours) were maintained in RPMI-1640 medium (Stem Cell Technology, Vancouver, B.C., Canada) containig fetal bovine serum (5%), horse serum (5%) and antibiotics.” for “Canada.”
Assays using DoHH2 cells were similarly performed, using their maintenance medium; Cin=ca. 1.5×10^5 cells/ml (see: Kluin-Nelemans, H. C. et al. (1991) Leukemia 5:221.)

[6] = rat, in vivo, ip
Text: 2% CMC or saline were used for controls. […] Food and water were provided ad libitum. […] Tissue sections were taken for histologic analysis.
Reduced tumor growth in the animals was therefore not the result of drug-induced dissemination of tumor cells from the transplant site, but reflected genuine, tumor growth inhibition. […] During therapy the animals remained active and their eyes stayed bright; there was no evidence of diarrhea, or changes in the appearance of their fur.

In the case of `Nc1ccc(O)c(C(=O)O)c1` [5-aminosalicylic acid], the Growth-inhibitory activity ([1]; listed as 5-ASA) is reported as “devoid of growth-inhibitory activity”.
For `CC(=O)Oc1ccccc1C(=O)O` [Acetylsalicylic acid], the “Therapeutic drug levels in plasma” value [2] is given as 1 to 3 mM, the inhibition at 3000 µM ([1]; Rattus norvegicus, 3 mM (FIG. 1), read-out: Inhibition of culture growth at therapeutic concentration) is given as roughly 50% and the IC50 ([1]; Rattus norvegicus) is given as 3.09 ± 0.28 mM.
For `COc1ccc2c(c1)c(CC(=O)O)c(C)n2C(=O)c1ccc(Cl)cc1` [Indomethacin], the “Therapeutic drug levels in plasma” value [2] is given as 0.005 to 0.02 mM, the inhibition at 20 µM ([1]; Rattus norvegicus, 0.02 mM (FIG. 1), read-out: Inhibition of culture growth at therapeutic concentration) is given as 5 to 10% and the IC50 ([1]; Rattus norvegicus) is given as 0.15 ± 0.01 mM.
With `N[C@@H](CCC(=O)O)C(=O)[O-].[Na+]` [Monosodium glutamate] the Inhibition of proliferation ([3]; 10 mM) was “inhibited proliferation in MCF-7 cells to an extent similar to that observed for sulfasalazine” and the “Effect of 2-ME addition on inhibition of proliferation” value ([3]; 10 mM, 2-ME added) was “completely negated this effect”.
With `O=C([O-])c1ccccc1O.[Na+]` [Salicylate, sodium, sodium salicylate] the “Inhibition of tumor growth” value (Nb2-U17 tumor transplant; i.p. 150 mg/kg body wt, 7 days, 150 mg/kg) was “did not inhibit tumor growth; also recorded: had no effect”.
With `O=C(O)c1cc(/N=N/c2ccc(S(=O)(=O)Nc3ccccn3)cc2)ccc1O` [Sulfasalazine] the “Antagonism of inhibitory action by 2-ME” value [4] was “completely antagonized”, the “Average tumor size after 7 days” value (Nb2-U17 tumor transplant; i.p. 200 mg/kg body wt, start 0.93 gr) was 3.43 gr and the “Average tumor size after 7 days” value (Nb2-U17 tumor transplant; i.p. 250 mg/kg body wt, start 0.60 gr) was 2.65 gr. The “Tumor growth suppression in three of the 13 cases” value (Nb2-U17 tumor transplant; i.p. 200 or 250 mg/kg body wt, 7 days) was 90-100%, the Lymphoma growth-inhibitory effect (Nb2-U17 tumor transplant; oral 500 mg/kg body wt, 7 days) was “only minor lymphoma growth-inhibitory effect” and the Cell lysis ([5]; 1.5% FBS, 0.05 mM, at hr 45 (FIG. 4)) was “extensive cell lysis”. The Growth-inhibitory activity [5] was “sensitivity to the drug which was similar to that of rat Nb2 lymphoma cells”, the Growth-inhibitory activity ([5]; listed as sulfasalazine) was “markedly inhibited the growth” and the “Effect on culture growth” value ([1]; 0.15 mM, 45 hour experiment) was “only partially arrested growth”. The Cell lysis ([1]; 0.2 mM, period 24-45 hours) was “induced severe cell lysis”, the Growth-inhibitory activity [1] was “highly potent” and the “Change of growth-inhibitory effect by elevated cystine” value ([1]; cystine at ca. 3-fold elevated levels (FIG. 5)) was “substantially reduced”. The IC50 ([3]; Homo sapiens, MCF7, MCF-7, read-out: IC50, growth inhibition) was 500 ± 100 µM, the Maximally tolerated dose ([6]; Nb, 7 days) was 250 mg/kg body wt, b.i.d and the Side effects [6] was “no major side effects”.
For `Nc1ccc(S(=O)(=O)Nc2ccccn2)cc1` [sulfapyridine], the Growth-inhibitory activity [1] was “devoid of growth-inhibitory activity”.
